Key:
[1] = biological target: T1, renin (Homo sapiens, UniProt P00797); assay: Human renin-sheep renin substrate reaction system in vitro; format: biochemical; conditions: purified human renin, semipurified sheep renin substrate, pH 7.4, 15 minutes at 37°C, angiotensin I by radioimmunoassay; read-out: IC50 molar concentration
T1 sequence (P00797 67-406): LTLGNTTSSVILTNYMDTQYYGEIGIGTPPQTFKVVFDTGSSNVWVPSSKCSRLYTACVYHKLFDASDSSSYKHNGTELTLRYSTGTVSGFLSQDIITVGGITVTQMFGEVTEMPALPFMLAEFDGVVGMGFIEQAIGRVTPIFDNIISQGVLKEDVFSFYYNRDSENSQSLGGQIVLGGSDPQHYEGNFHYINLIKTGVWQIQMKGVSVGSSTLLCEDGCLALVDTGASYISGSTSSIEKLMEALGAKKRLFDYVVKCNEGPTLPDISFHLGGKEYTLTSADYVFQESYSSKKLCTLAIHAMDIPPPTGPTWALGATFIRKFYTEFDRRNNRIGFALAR
Experimental: To a mixture containing 200 µl of a 125 mM pyrophosphate buffer (pH 7.4), 25 µl of a 20 mM aqueous solution of L-phenylalanyl-L-alanyl-L-prolin as an angiotensin cnverting enzyme inhibitor, 50 µ01 of semipurified sheep renin substrate (2000 ng angiotensin I/ml), 50 µl of dimethyl sulfoxide solution of an amino acid compound of the present invention and 150 µl of deionized water was added 25 µl of purified human renin (20-30 ng angiotensin I/ml/hr. The mixture was incubated for 15 minutes on a water bath at 37°C, and the reaction mixture was allowed to stand for 5 minutes on a water bath at 100°C to stop the reaction. After cooling, 200 µl of the solution were taken up and the amount of angiotensin I produced by the addition of renin was determined by radiommunoassay. The inhibitory effect was calculated by the following equation.
As a control, the same procedure as above was carried out by using 50 µl of dimethyl sulfoxide alone in place of the 50 µl of dimethyl sulfoxide solution containing an amino acid compound of the present invention.

[2] = biological target: T1, renin; assay: Renin inhibitory effect in a human high renin plasma; format: biochemical; parameters: from tissue; host or cells: human high renin plasma; conditions: pH 7, 60 minutes at 37°C, angiotensin I by radioimmunoassay, read-out: IC50 (molar concentration)
Experimental: A mixture of 350 µl of a 0.5 M phosphate buffer containing 14 mM EDTA 2Na and a 0.3% neomycin sulfate, which was adjusted to the pH of 7, 50 µl of a 20 mM an aqueous solution of L-phenylalanyl-L-alanyl-L-prolin as an angiotensin converting enzyme inhibitor and 100 µl of dimethyl sulfoxide solution containing an amino acid compound of the present invention was added to 500 µl of human high renin plasma, and 200 µl of the mixture was incubated at 4°C in an ice bath, and remaining mixture (800 µl) was incubated for 60 minutes at 37°C in a water bath. A 200 µl sample was withdrawn from the incubated mixture, chilled immediately in an ice bath, and the amount (A) of angiotensin I produced was determined by radioimmunoassay.
Also, the amount (B) of angiotensin I produced in the incubated mixture at 4°C in an ice bath was determined by radioimmunoassy.
As a control, the same procedure as above was carried out by using 100 µl of dimethyl sulfoxide alone in place of the 100µl of dimethyl sulfoxide solution containing an amino acid compound of the present invention.
The renin inhibitory effect in human plasa was calculated by taking the amount of angiotensin I - (A) from the amount of angiotensin I (B). The inhibotory effect was calculated by the following equation. [formula]

[3] = system: common marmoset; assay: Hypotensive effect in marmoset; format: in vivo; conditions: orally 30 mg/kg, conscious male marmosets in high renin state (furosemide), Control 103.5
Experimental: The experiment was carrried out by using common marmoset as described in K.G. Hofbauer et al., Clinical and Experimental hypertension, Vol. A5, Nos. 7 & 8 (1983), pages 1237-1247.
Furosemide was orally administered three times to common marmoset at 15 mg per kilogram per day every other day to create a high renin state. Blood pressure of consious marmoset was measured 2 days after the last administration of furosemide.
Three consious male marmosets marmosets weighing 305-345 g were fixed. Mean blood pressure at tail artery was recorded on pretismograph instrument. The amino acid compound, of the present invention isopropyl (2RS. 3S)-3-{N-[2-(1-naphthylmethyl)-3-(morpholinocarbonylpropionyl]-L-histidyl}amino-2-hydroxy-5-methylhexanoate and administered orally at 30 mg/kg by using a catheter. The results obtained are shown below.

IC50 [1] [nM] | IC50 [2] [nM] | Structure (SMILES) | other results
36 |  | CC(C)CCNC(=O)C[C@H](O)[C@H](CC(C)C)NC(=O)[C@H](Cc1c[nH]cn1)NC(=O)C(CC(=O)N1CCOCC1)Cc1cccc2ccccc12 (stereo partly drawn) [Example 13, N-[2-(1-Naphthyfmethyl)-3-(morpholinocarbouyl)-propionyl]-L-histidyl-statylisoamylamide] | 
210 |  | COC(=O)C[C@H](O)[C@H](CC(C)C)NC(=O)[C@H](Cc1c[nH]cn1)NC(=O)C(CC(=O)N1CCOCC1)Cc1cccc2ccccc12 (stereo partly drawn) [Example 11, Methyl N-[2-(1-naphthylmethyl)-3-(morpholinocarbonyl)propionyl]-L-histidyistatinate] | 
28 | 88 | CC(C)C[C@H](NC(=O)[C@H](Cc1c[nH]cn1)NC(=O)C(CC(=O)N1CCCCC1)Cc1cccc2ccccc12)C(O)C(=O)OC(C)C (stereo partly drawn) [Example 5, lsopropyl (2RS, 3S)-3-{N-[2-(1-Naphthytmethyl)-3-(piperidinocarbonyl)propionyl}-t-hisfidyl)amino-2-hydroxy-5-methylhexanoate] | 
630 |  | CCNC(=O)CC(Cc1cccc2ccccc12)C(=O)N[C@@H](Cc1c[nH]cn1)C(=O)N[C@@H](CC(C)C)C(O)C(=O)OC (mixture of isomers) [Example 10, Methyl (2RS, 3S)-3-{N-[2-(1-naphthylmethyl)-3-(ethylcarbamoyl)propionyl]-L-histidyl}amino-2-hydroxy-5-methylhexanoate] | 
690 | 5200 | CNC(=O)C(O)[C@H](CC(C)C)NC(=O)[C@H](Cc1c[nH]cn1)NC(=O)C(CC(=O)N1CCCCC1)Cc1cccc2ccccc12 (mixture of isomers) [Example 7, (2RS, 3S)-3-{N-[2-(1-Naphthylmethyl)-3-(piperidinocarbonyl)propionyl]-L-histidyl}amino-2-hydroxy-5-methylhexanoylmethylamide] | 
 |  | CC(C)C[C@H](NC(=O)[C@H](Cc1cnc[nH]1)NC(=O)C(CC(=O)N1CCOCC1)Cc1cccc2ccccc12)C(O)C(=O)OC(C)C (stereo partly drawn) [Example 1] | Mean blood pressure ([3]; 0.5 hours after administration): 88.7 mmHg; Mean blood pressure ([3]; 1 hour after administration): 85.6 mmHg; Mean blood pressure ([3]; 2 hours after administration): 87.2 mmHg; Mean blood pressure ([3]; 3 hours after administration): 89.3 mmHg; Mean blood pressure ([3]; 5 hours after administration): 92.4 mmHg; Mean blood pressure ([3]; 7 hours after administration): 92.3 mmHg; Mean blood pressure ([3]; 9 hours after administration): 92.8 mmHg; Mean blood pressure ([3]; 24 hours after administration): 101.9 mmHg
340 |  | CNC(=O)C(O)[C@H](CC(C)C)NC(=O)[C@H](Cc1c[nH]cn1)NC(=O)C(CC(=O)N1CCOCC1)Cc1cccc2ccccc12 (mixture of isomers) [Example 3, (2RS, 3S)-3-{N-[2-(1-Naphthylmethyl)-3-(morpholinocarbonyl)propionyl]-L-histidyl}amino-2-hydroxy-5-methylhexanoylmethylamide] | 
69 | 62 | COC(=O)C(O)[C@H](CC(C)C)NC(=O)[C@H](Cc1c[nH]cn1)NC(=O)C(CC(=O)N1CCCC1)Cc1cccc2ccccc12 (stereo partly drawn) [Example 8, Methyl (2RS, 3S)-3-{N-[2-(1-naphthylmethyl)-3-(pyrroiidinocarbonyl)propionyl]-L-histidyl}amino-2-hydroxy-5-methylhexanoate] | 

Source: EP0200406A2, “Novel amino acid derivatives” (Kissei Pharmaceutical Co Ltd, priority 1985, dated 1986)
